According to article PMC6859627, “Growth of the facultative chemolithoautotroph Ralstonia eutropha on organic waste materials: growth characteristics, redox regulation and hydrogenase activity” (Microbial Cell Factories, 2019):

How the values were obtained:
[1] = target: T1, FOF1-ATPase (FOF1-ATP synthase) (Cupriavidus necator, UniProt Q0K5M2); test: phosphate release from ATP by membrane vesicles; type: biochemical; details: 5 mM ATP, 1 mM MgSO4, 50 mM Tris-HCl pH 7.0, 30 °C; 10 min preincubation; FN-grown cells; overall ATPase activity of vesicles
T1 construct: gene atpE; native complex in membrane vesicles (osmotic lysis), not purified; FOF1 share defined by DCCD sensitivity; with ATP synthase subunit a; ATP synthase subunit b; ATP synthase subunit alpha; ATP synthase subunit beta; ATP synthase gamma chain; ATP synthase subunit delta; ATP synthase epsilon chain

[2] = target: T2, SH (cytoplasmic, soluble hydrogenase) (Cupriavidus necator, UniProt P22317); test: H2-dependent NAD+ reduction at […] nm, soluble extract; type: biochemical; details: 1 mM NAD+, H2-saturated 50 mM Tris/HCl pH 8.0, anaerobic, 30 °C
T2 construct: gene hoxF; native enzyme in soluble protein fraction of cell extract; hetero-hexamer HoxHYFUI2; with NAD-reducing hydrogenase HoxS subunit beta; NAD-reducing hydrogenase HoxS subunit gamma; NAD-reducing hydrogenase HoxS subunit delta; NAD-reducing hydrogenase subunit HoxI
T2 sequence (P22317 whole entry): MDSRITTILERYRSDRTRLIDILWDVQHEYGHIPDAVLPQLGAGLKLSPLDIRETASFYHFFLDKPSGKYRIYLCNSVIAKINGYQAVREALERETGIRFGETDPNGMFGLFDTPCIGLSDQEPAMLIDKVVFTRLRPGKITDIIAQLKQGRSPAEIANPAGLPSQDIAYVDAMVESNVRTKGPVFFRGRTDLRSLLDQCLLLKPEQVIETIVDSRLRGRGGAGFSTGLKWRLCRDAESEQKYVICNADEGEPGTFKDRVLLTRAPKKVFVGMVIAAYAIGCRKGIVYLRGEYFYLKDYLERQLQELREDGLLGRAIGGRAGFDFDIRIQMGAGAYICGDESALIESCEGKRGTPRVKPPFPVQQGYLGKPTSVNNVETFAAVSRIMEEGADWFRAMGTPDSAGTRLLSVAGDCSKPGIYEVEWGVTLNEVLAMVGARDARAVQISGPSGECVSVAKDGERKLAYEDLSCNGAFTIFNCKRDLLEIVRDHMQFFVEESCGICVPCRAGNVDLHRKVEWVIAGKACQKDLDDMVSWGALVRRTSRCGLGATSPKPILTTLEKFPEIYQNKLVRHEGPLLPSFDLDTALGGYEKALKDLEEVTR
T2 sequence (P22318 2-234 partner): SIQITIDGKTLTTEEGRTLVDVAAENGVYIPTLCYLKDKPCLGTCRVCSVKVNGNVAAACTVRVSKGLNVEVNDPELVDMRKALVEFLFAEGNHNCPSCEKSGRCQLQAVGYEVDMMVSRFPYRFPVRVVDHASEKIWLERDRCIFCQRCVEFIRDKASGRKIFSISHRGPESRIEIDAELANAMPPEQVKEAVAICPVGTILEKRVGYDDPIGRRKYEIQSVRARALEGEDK
T2 sequence (P22319 whole entry partner): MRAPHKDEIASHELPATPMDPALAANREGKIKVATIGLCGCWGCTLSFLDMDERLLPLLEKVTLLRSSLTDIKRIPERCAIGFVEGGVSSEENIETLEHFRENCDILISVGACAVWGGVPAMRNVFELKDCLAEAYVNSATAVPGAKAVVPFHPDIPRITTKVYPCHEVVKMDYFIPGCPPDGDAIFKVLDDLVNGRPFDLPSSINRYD
T2 sequence (P22320 2-464 partner): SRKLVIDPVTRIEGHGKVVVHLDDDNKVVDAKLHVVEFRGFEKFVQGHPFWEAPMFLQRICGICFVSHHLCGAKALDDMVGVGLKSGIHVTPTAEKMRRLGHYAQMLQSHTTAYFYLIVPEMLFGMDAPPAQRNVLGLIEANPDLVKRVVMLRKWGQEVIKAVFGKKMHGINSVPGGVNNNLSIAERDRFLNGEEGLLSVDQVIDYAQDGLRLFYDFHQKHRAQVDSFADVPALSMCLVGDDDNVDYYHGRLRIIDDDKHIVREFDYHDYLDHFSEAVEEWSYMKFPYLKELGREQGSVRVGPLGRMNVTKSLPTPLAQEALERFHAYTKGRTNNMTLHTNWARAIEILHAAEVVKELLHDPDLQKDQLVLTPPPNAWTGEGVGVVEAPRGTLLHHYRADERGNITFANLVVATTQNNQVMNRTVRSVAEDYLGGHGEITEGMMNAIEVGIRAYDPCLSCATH

SMILES | fold inhibition at 0.2 mM [1] | H2-dependent NAD+ reduction at 365 nm, soluble extract [2]
C(=NC1CCCCC1)=NC1CCCCC1 [DCCD, N,N′-dicyclohexylcarbodiimide] | ~ 2.3 fold | 
NC(=O)c1ccc[n+]([C@@H]2O[C@H](COP(=O)(O)OP(=O)(O)OC[C@H]3O[C@@H](n4cnc5c(N)ncnc54)[C@H](O)[C@@H]3O)[C@@H](O)[C@H]2O)c1 [NAD^+] |  | hydrogen-oxidizing activity of SH was measured in anaerobic cuvettes with NAD^+
